EC50 data for 1 compound are collected here from article PMC11673756, “Urolithin A Protects Hepatocytes from Palmitic Acid-Induced ER Stress by Regulating Calcium Homeostasis in the MAM” (Biomolecules, 2024).

This assay addresses T1, CCDC47 (Coiled-Coil Domain Containing 47) (Homo sapiens, UniProt Q96A33).
T1 construct: endogenous CCDC47 in HepG2 cells
T1 sequence (Q96A33 21-483): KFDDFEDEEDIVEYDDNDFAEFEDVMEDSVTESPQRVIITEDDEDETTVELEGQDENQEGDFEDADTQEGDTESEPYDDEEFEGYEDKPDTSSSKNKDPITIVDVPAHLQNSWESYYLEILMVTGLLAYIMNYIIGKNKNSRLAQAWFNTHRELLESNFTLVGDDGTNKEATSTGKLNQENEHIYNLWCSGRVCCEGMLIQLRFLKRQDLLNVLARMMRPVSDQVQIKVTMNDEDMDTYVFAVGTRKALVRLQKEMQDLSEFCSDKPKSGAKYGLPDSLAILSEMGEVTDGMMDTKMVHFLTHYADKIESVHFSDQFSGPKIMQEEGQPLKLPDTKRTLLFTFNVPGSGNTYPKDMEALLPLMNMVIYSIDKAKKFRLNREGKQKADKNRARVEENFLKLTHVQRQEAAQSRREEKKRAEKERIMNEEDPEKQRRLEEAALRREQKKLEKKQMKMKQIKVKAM
As to the kind of experiment: isothermal CETSA at […] °C. The class given is cell-based.

Consider `O=c1oc2cc(O)ccc2c2ccc(O)cc12` [UA, Urolithin A], for which the EC50 is around 38 µM.

A word on the EC50: it is the midpoint of the concentration-response curve. Low values mean an effect from little substance, high ones a need for much substance.
